Test results from BindingDB's records for doi:10.1007/s00044-013-0847-2 (n/a, 2013).

Legend:
Cholinesterase = Cholinesterase (Homo sapiens, UniProt P06276); experiment: Inhibition of BChE (unknown origin) using butyryl thiocholine iodide as substrate after 30 mins by Ellman's method
Acetylcholinesterase = Acetylcholinesterase (Homo sapiens, UniProt P22303); experiment: Inhibition of AChE (unknown origin) using acetyl thiocholine iodide as substrate after 30 mins by Ellman's method
Chain of Acetylcholinesterase (P22303 whole entry): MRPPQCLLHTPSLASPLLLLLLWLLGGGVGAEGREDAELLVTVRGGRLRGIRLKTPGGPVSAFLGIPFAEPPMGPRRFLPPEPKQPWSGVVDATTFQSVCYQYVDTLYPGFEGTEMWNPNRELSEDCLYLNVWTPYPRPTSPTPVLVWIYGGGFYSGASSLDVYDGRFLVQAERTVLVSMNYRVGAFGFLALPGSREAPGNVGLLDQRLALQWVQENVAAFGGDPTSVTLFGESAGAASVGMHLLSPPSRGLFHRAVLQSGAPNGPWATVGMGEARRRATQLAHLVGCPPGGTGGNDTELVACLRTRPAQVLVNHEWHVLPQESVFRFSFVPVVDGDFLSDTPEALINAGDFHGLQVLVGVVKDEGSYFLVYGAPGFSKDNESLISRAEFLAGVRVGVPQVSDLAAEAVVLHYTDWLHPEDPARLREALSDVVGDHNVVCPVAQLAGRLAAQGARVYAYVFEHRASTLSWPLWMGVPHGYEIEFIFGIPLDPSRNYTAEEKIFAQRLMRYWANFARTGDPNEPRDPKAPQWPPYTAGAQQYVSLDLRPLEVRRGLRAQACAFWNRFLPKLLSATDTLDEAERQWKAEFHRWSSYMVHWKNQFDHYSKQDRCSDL

Chain of Cholinesterase (P06276 whole entry): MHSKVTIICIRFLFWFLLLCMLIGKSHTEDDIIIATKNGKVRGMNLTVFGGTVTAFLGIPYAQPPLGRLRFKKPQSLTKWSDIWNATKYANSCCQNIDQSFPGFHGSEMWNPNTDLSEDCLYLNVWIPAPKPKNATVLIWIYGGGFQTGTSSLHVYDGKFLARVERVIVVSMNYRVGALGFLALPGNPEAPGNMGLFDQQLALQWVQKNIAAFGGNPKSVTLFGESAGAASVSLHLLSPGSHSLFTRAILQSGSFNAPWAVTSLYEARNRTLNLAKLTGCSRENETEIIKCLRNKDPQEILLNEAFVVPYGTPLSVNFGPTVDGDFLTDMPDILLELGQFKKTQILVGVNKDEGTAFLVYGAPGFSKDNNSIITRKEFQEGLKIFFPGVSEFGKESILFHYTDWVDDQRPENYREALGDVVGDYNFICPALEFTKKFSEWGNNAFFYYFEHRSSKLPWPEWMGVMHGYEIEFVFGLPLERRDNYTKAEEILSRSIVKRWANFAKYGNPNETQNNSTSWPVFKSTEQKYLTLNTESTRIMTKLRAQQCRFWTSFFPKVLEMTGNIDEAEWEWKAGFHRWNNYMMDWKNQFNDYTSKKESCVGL

SMILES	IC50 (Cholinesterase) [µM]	IC50 (Acetylcholinesterase) [µM]
CC(=O)NC=C1C(=O)NC(=O)NC1=O	116	90.9
O=C1NC(=S)NC(=O)C1=CNNC(=S)Nc1ccc(C(F)(F)F)cc1	8.1	99.4
Cc1cccc(Cl)c1NC(=S)NNC=C1C(=O)NC(=O)NC1=O	8.81	–
O=C1NC(=S)NC(=O)C1=CNNC(=S)Nc1ccccc1	57.1	115
O=C1NC(=S)NC(=O)C1=CNNC(=S)Nc1ccc(F)cc1	57.8	78.4
N#Cc1ccc(NC(=S)NNC=C2C(=O)NC(=O)NC2=O)cc1	231	–
O=C1NC(=S)NC(=O)C1=CNNC(=S)Nc1ccc(Br)cc1	68.4	79.2
NC(=S)NNC=C1C(=O)NC(=O)NC1=O	56.5	119
O=C1NC(=S)NC(=O)C1=CNNC(=S)Nc1ccc(Cl)cc1	75.4	121
O=C1NC(=O)C(=CNNC(=O)Nc2ccccc2)C(=O)N1	38.5	–
O=C1NC(=O)C(=CNNC(=S)Nc2cccc(C(F)(F)F)c2)C(=O)N1	136	40.7
O=C(NNC=C1C(=O)NC(=S)NC1=O)Nc1ccccc1	3.31	74.2
COc1ccc(NC(=S)NNC=C2C(=O)NC(=S)NC2=O)cc1	56.8	206
